Drawing on ChEMBL document CHEMBL1909046, “DrugMatrix in vitro pharmacology data”, this text covers IC50 and Ki for 18 compounds.

The target of one test is T1, Leukotriene C4 synthase (Cavia porcellus, UniProt A6XA80).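 Further: enzyme inhibition assay of leukotriene C4 synthase, using LTA4 as the substrate; in other assays of this panel Not Active means under 50% inhibition at 10 µM.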
T1 sequence (A6XA80 whole entry): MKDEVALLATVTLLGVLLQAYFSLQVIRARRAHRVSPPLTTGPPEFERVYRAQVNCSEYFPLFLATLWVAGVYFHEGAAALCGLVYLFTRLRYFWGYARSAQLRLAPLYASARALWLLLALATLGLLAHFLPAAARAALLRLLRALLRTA
The test is classed as tissue-based, Lung.

Test [1] addresses T2, C-X-C chemokine receptor type 2 (Homo sapiens, UniProt P25025).
T2 sequence (P25025 whole entry): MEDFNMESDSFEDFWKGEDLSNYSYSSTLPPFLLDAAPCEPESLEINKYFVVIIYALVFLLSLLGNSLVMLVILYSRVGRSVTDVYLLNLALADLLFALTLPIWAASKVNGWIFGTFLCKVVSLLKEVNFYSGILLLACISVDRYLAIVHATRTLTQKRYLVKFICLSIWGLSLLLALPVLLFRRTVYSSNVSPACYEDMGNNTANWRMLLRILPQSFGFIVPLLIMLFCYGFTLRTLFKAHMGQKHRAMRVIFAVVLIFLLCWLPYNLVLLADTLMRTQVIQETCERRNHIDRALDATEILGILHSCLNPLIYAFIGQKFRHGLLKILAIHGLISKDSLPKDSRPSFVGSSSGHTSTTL
Type of test: cell membranes, Membrane. Conditions: cho-k1.

For the next test, the target named is D(1A) dopamine receptor (Homo sapiens, UniProt P21728). In words: DRUGMATRIX: Dopamine D1 radioligand binding (ligand: [3H] SCH-23390). Type of test: cell membranes, CHO, Membrane. To be noted: cho; Not Active = under 50% inhibition at 10 µM.
Sequence of D(1A) dopamine receptor (P21728 whole entry): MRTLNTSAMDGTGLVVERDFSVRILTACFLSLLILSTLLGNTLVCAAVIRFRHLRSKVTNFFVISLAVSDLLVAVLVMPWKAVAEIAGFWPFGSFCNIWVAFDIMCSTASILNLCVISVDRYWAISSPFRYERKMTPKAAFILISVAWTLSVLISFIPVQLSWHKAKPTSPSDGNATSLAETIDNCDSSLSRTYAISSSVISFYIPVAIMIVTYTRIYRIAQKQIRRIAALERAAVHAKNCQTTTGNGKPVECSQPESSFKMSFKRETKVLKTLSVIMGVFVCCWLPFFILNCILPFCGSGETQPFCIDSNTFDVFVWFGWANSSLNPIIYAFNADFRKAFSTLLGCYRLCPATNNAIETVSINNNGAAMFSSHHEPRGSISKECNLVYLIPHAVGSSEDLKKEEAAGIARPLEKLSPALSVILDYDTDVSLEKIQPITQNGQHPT
Test [2] addresses T3, C-X-C chemokine receptor type 1 (Homo sapiens, UniProt P25024).
T3 sequence (P25024 whole entry): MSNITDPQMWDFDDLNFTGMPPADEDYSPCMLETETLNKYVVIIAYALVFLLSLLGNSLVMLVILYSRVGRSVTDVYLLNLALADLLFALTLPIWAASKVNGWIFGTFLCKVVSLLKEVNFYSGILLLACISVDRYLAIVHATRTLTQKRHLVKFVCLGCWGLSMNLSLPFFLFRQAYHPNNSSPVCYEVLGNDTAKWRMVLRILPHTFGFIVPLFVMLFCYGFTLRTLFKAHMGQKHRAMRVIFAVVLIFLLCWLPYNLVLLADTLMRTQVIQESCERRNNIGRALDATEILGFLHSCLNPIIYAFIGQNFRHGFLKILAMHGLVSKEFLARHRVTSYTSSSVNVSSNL

Test [3] addresses Prostaglandin G/H synthase 1 (Homo sapiens, UniProt P23219). Nature of the test: biochemical. The test is classed as tissue-based, Platelet.
In another test the target is T4, Interstitial collagenase (Homo sapiens, UniProt P03956).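 Further: MMP-1 enzyme inhibition assay using a peptide substrate; in other assays of this panel Not Active means under 50% inhibition at 10 µM.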
T4 sequence (P03956 whole entry): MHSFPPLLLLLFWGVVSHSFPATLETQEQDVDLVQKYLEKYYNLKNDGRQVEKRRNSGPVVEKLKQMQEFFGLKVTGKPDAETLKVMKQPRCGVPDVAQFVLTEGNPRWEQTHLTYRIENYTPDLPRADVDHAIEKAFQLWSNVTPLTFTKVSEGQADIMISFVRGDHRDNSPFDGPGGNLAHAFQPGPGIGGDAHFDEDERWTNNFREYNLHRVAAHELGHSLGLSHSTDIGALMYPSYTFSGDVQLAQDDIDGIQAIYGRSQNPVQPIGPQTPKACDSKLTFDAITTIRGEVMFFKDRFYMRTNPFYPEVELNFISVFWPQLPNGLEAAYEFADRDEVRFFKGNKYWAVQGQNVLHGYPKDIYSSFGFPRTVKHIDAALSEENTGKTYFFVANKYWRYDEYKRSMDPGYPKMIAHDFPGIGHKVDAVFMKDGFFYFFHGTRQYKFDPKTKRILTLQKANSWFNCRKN
Type of test: tissue-based, Rheumatoid synovial fibroblasts.

Test [4] is described as follows: DRUGMATRIX: Imidazoline I2, Central radioligand binding (ligand: [3H] Idazoxan). Conditions: Not Active = under 50% inhibition at 10 µM. Type of test: cell membranes, Rattus norvegicus, Wistar, Cerebral cortex, Membrane.

As a reminder, the IC50 is the concentration at which inhibition is half-maximal. Usually Ki stands for the dissociation constant of the complex between target and ligand, obtained from inhibition or displacement.

Sequence of Prostaglandin G/H synthase 1 (P23219 whole entry): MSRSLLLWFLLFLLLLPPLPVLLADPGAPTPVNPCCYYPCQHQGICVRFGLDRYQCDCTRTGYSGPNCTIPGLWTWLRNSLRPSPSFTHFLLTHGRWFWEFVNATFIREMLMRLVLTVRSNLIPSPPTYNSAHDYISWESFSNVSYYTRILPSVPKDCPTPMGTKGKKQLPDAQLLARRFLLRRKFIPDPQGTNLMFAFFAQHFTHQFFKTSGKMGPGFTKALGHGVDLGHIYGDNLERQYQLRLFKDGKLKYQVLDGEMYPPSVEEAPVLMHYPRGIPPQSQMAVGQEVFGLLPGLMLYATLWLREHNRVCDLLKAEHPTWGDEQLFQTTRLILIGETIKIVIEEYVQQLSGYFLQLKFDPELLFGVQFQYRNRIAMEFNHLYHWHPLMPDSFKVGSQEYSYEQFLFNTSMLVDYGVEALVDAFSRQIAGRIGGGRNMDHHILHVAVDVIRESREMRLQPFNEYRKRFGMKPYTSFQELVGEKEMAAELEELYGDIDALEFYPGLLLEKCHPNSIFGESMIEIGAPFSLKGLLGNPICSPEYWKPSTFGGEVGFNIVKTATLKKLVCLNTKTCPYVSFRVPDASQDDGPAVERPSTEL

Consider `CC(=O)OCC(CCn1cnc2cnc(N)nc21)COC(C)=O` [FAMCICLOVIR], for which the IC50 result (against Leukotriene C4 synthase; in test [1]; at D(1A) dopamine receptor; in test [2]; in test [3] (platelet); at Interstitial collagenase) was “Not Active” throughout. The half-inhibitory concentration (IC50) result in test [4] was “Not Active”. For the same compound, the Ki entry in test [4] is listed as “Not Active”.
With `O=C(O)Cc1ccc(-c2ccccc2)cc1` [FELBINAC], the half-inhibitory concentration (IC50) entry was “Not Active” against Leukotriene C4 synthase; “Not Active” in test [1]; “Not Active” at D(1A) dopamine receptor; “Not Active” in test [2]; 0.894 µM in test [3] (read-out: IC50); “Not Active” against Interstitial collagenase. Also, the half-inhibitory concentration (IC50) result in test [4] is “Not Active”. The Ki result in test [4] was “Not Active”.
On to `CCOC(=O)C1=C(C)NC(C)=C(C(=O)OC)C1c1cccc(Cl)c1Cl` (centres undefined) [FELODIPINE], for which the IC50 entry (at Leukotriene C4 synthase; in test [1]; on D(1A) dopamine receptor; in test [2]; in test [3] (platelet); on Interstitial collagenase) was “Not Active” throughout. Further, the IC50 result in test [4] is “Not Active”. Besides, in test [4], the inhibitory constant (Ki) result is “Not Active”.
Turning to `Cc1cn[nH]c1` [FOMEPIZOLE], the half-maximal inhibitory concentration (IC50) entry (on Leukotriene C4 synthase; in test [1]; at D(1A) dopamine receptor; in test [2]; in test [3] (platelet); against Interstitial collagenase) was “Not Active” in each case. The half-inhibitory concentration (IC50) result in test [4] is on record as “Not Active”. The Ki result in test [4] is “Not Active”.
For `NC[C@@H]1O[C@H](O[C@H]2[C@@H](O)[C@H](O[C@@H]3[C@@H](O)[C@H](N)C[C@H](N)[C@H]3O[C@H]3O[C@H](CN)[C@@H](O)[C@H](O)[C@H]3N)O[C@@H]2CO)[C@H](N)[C@@H](O)[C@@H]1O` [FRAMYCETIN], the half-maximal inhibitory concentration (IC50) result (against Leukotriene C4 synthase; in test [1]; on D(1A) dopamine receptor; in test [2]; in test [3] (platelet); at Interstitial collagenase) was “Not Active” throughout. In addition, in test [4], the IC50 result was “Not Active”. Further, the Ki entry in test [4] was “Not Active”.
`C[C@H]([C@](O)(Cn1cncn1)c1ccc(F)cc1F)S(C)(=O)=O` [GENACONAZOLE]: the half-inhibitory concentration (IC50) entry (on Leukotriene C4 synthase; in test [1]; at D(1A) dopamine receptor; in test [2]; in test [3] (platelet); against Interstitial collagenase) was “Not Active” throughout. In test [4], the IC50 entry is recorded as “Not Active”. In test [4], the Ki entry is “Not Active”.
For `Cc1cnc(C(=O)NCCc2ccc(S(=O)(=O)NC(=O)NC3CCCCC3)cc2)cn1` [GLIPIZIDE], the half-inhibitory concentration (IC50) entry (at Leukotriene C4 synthase; in test [1]; on D(1A) dopamine receptor; in test [2]; in test [3] (platelet); at Interstitial collagenase) was “Not Active” throughout. The 50% inhibitory concentration (IC50) entry in test [4] is “Not Active”. The Ki result in test [4] is “Not Active”.
As to `Cc1c(F)c(N2CCNC(C)C2)cc2c1c(=O)c(C(=O)O)cn2C1CC1` (centres undefined) [GREPAFLOXACIN], the half-inhibitory concentration (IC50) result (against Leukotriene C4 synthase; in test [1]; on D(1A) dopamine receptor; in test [2]; in test [3] (platelet); at Interstitial collagenase) was “Not Active” throughout. The half-maximal inhibitory concentration (IC50) entry in test [4] was “Not Active”. The inhibition constant (Ki) result in test [4] is “Not Active”.
In the case of `COc1ccccc1OCC(O)CO` (centres undefined) [GUAIFENESIN], the IC50 entry (against Leukotriene C4 synthase; in test [1]; at D(1A) dopamine receptor; in test [2]; in test [3] (platelet); against Interstitial collagenase) was “Not Active” each time. Further, the IC50 result in test [4] was “Not Active”. Moreover, in test [4], the Ki result is recorded as “Not Active”.
As to `N=C(N)N/N=C/c1c(Cl)cccc1Cl` [GUANABENZ], the IC50 result (at Leukotriene C4 synthase; in test [1]; on D(1A) dopamine receptor; in test [2]; in test [3] (platelet); against Interstitial collagenase) was “Not Active” in each case. In addition, the IC50 in test [4] (read-out: IC50) was 0.018 µM. Also, the inhibition constant Ki in test [4] (read-out: Ki) amounted to 0.012 µM.
On to `C[C@]12CCC(=O)C=C1CC[C@@H]1[C@@H]2[C@@H](O)C[C@@]2(C)[C@H]1CC[C@]2(O)C(=O)CO` [HYDROCORTISONE], for which the IC50 entry (at Leukotriene C4 synthase; in test [1]; at D(1A) dopamine receptor; in test [2]; in test [3] (platelet); at Interstitial collagenase) was “Not Active” throughout. The 50% inhibitory concentration (IC50) result in test [4] is reported as “Not Active”. For the same compound, the Ki entry in test [4] is listed as “Not Active”.
In the case of `C/C=C\c1ccc(O)c(OC)c1` [ISOEUGENOL], the IC50 result (against Leukotriene C4 synthase; in test [1]; on D(1A) dopamine receptor; in test [2]; in test [3] (platelet); against Interstitial collagenase) was “Not Active” throughout. The half-inhibitory concentration (IC50) entry in test [4] was “Not Active”. Also, the inhibitory constant (Ki) entry in test [4] is on record as “Not Active”.
Turning to `NC[C@H]1O[C@H](O[C@H]2[C@H](O)[C@@H](O[C@H]3O[C@H](CO)[C@@H](O)[C@H](N)[C@H]3O)[C@H](N)C[C@@H]2N)[C@H](O)[C@@H](O)[C@@H]1O` [KANAMYCIN], the 50% inhibitory concentration (IC50) result (at Leukotriene C4 synthase; in test [1]; on D(1A) dopamine receptor; in test [2]; in test [3] (platelet); against Interstitial collagenase) was “Not Active” throughout. The IC50 entry in test [4] was “Not Active”. Moreover, in test [4], the inhibition constant (Ki) entry was “Not Active”.
On to `CC[C@H](C)C(=O)O[C@H]1C[C@@H](C)C=C2C=C[C@H](C)[C@H](CC[C@@H]3C[C@@H](O)CC(=O)O3)[C@H]21` [LOVASTATIN], for which the IC50 result (at Leukotriene C4 synthase; in test [1]; on D(1A) dopamine receptor; in test [2]; in test [3] (platelet); against Interstitial collagenase) was “Not Active” throughout. Further, the concentration for half-maximal inhibition (IC50) result in test [4] is recorded as “Not Active”. For the same compound, the Ki entry in test [4] was “Not Active”.
In the case of `CC(C(=O)O)c1ccc(CC2CCCC2=O)cc1` (centres undefined) [LOXOPROFEN], the IC50 entry (on Leukotriene C4 synthase; in test [1]; on D(1A) dopamine receptor; in test [2]; in test [3] (platelet); against Interstitial collagenase) was “Not Active” each time. For the same compound, the IC50 entry in test [4] is “Not Active”. Also, the Ki entry in test [4] was “Not Active”.
For `Cc1cccc(Nc2ccccc2C(=O)O)c1C` [MEFENAMIC ACID], the half-maximal inhibitory concentration (IC50) result was “Not Active” against Leukotriene C4 synthase; “Not Active” in test [1]; “Not Active” on D(1A) dopamine receptor; “Not Active” in test [2]; 0.116 µM in test [3] (read-out: IC50); “Not Active” at Interstitial collagenase. Further, in test [4], the IC50 entry is “Not Active”. Also, the Ki entry in test [4] is given as “Not Active”.
`CC(=O)O[C@]1(C(C)=O)CC[C@H]2[C@@H]3C=C(C)C4=CC(=O)CC[C@]4(C)[C@H]3CC[C@@]21C` [MEGESTROL ACETATE]: the concentration for half-maximal inhibition (IC50) result (at Leukotriene C4 synthase; in test [1]; on D(1A) dopamine receptor; in test [2]; in test [3] (platelet); against Interstitial collagenase) was “Not Active” each time. Besides, in test [4], the concentration for half-maximal inhibition (IC50) entry is reported as “Not Active”. The Ki entry in test [4] is listed as “Not Active”.
For `COc1ccccc1OCC(O)COC(N)=O` (centres undefined) [METHOCARBAMOL], the half-maximal inhibitory concentration (IC50) result (against Leukotriene C4 synthase; in test [1]; at D(1A) dopamine receptor; in test [2]; in test [3] (platelet); on Interstitial collagenase) was “Not Active” in each case. Moreover, in test [4], the IC50 entry was “Not Active”. Further, in test [4], the Ki result is on record as “Not Active”.
